Where two headings read alike, the source gives them in different places.

The target of this assay is T1, G1 APOL1 (Homo sapiens, UniProt O14791, I384M/S342G).
T1 construct: expressed in transfected cells
T1 sequence (O14791 28-398 S342G/I384M): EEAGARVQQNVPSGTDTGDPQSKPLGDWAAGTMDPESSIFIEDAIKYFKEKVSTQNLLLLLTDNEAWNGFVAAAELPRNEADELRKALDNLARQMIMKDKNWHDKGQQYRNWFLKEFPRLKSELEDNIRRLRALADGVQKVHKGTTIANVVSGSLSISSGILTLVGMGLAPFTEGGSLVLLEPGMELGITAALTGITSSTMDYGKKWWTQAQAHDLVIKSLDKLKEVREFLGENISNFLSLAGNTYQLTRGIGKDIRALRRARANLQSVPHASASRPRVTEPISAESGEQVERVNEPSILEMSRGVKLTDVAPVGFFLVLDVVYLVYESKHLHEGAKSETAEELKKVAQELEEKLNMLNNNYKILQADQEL
The assay can be described thus: Acute APOL1 Thallium Assay with inducible stable clones of HEK 293 cells. Particulars: read-out: Thallium Assay (IC50). It counts as cell-based. An outline of the steps:
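Tetracycline-inducible HEK293 T-Rex clone G1 DC3.25 expressing G1 APOL1, plated at 26000 cells/well in Opti-MEM with tetracycline induction. APOL1 pore activity read on FLIPR as fluorescence increase from Tl+ influx into cells loaded with a Tl+-sensitive AM-ester dye.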

The mark [1] stands for this setting: HEK 293 T-Rex cells expressing G1 APOL1.

`CC(C)C(CO)NC(=O)[C@H]1C[C@@H](c2c(-c3ccc(F)cc3)[nH]c3c(F)cc(F)cc32)C1` (some centres unmarked) [Compound 254]: the IC50 under setting [1] is greater than 1000 nM.

For the compound `O=C(CC1CC(c2c(-c3ccc(F)cc3)[nH]c3c(F)cc(F)cc23)C1)N[C@H](CO)C(F)(F)F` (some centres unmarked) [Compound 461], the IC50 (Table 24, Compounds 287 to 465) is greater than 1000 nM.

Turning to `Cn1cc(CNC(=O)O[C@H]2C[C@H](c3c(-c4ccc(F)cc4)[nH]c4c(F)cc(F)cc43)C2)nn1` [Compound 387], the IC50 (Table 24, Compounds 287 to 465) was greater than 1000 nM. As for `O=C(CNC(=O)[C@H]1C[C@H](c2c(-c3ccc(F)cc3)[nH]c3c(F)cc(F)cc32)C1)NC[C@H](O)C(F)(F)F` [Compound 234], the IC50 under setting [1] is greater than 1000 nM. On to `C[C@@H](CO)NC(=O)CC1CC(c2c(-c3ccc(F)cc3)[nH]c3c(F)cc(F)cc23)C1` (some centres unmarked) [Compound 458], for which the IC50 (Table 24, Compounds 287 to 465) is greater than 1000 nM. The same measure, in the same setting: the same measure for `O=C(NC[C@H]1C[C@H](c2c(-c3ccc(F)cc3)[nH]c3c(F)cc(F)cc32)C1)NC1(CO)CCOC1` (some centres unmarked) [Compound 425]: greater than 1000 nM; for `C[C@@H](NCC1CC(c2c(-c3ccc(F)cc3)[nH]c3c(F)cc(F)cc23)C1)C(=O)N(C)C` (some centres unmarked) [Compound 438]: greater than 1000 nM; for `O=C1CC(CNC(=O)C2CC(Cc3c(-c4ccc(F)cc4)[nH]c4c(F)cc(F)cc34)C2)CN1` (centres unmarked) [Compound 336]: greater than 1000 nM.

`O=C(NCCn1cncn1)[C@H]1C[C@@H](c2c(-c3ccc(F)cc3)[nH]c3c(F)cc(F)cc32)C1` [Compound 264]: the IC50 under setting [1] was greater than 1000 nM. On to `CC(C)NC(=O)CN[C@H]1C[C@H](c2c(-c3ccc(F)cc3)[nH]c3c(F)cc(F)cc32)C1` [Compound 290], for which, for the setting “Table 24, Compounds 287 to 465”, the IC50 is greater than 1000 nM. With `O=C(NCc1cocn1)C1CC(Cc2c(-c3ccc(F)cc3)[nH]c3c(F)cc(F)cc23)C1` (centres unmarked) [Compound 341], the IC50 (Table 24, Compounds 287 to 465) was greater than 1000 nM. Still for that read-out and setting: the same measure for `CNC(=O)CN[C@H]1C[C@H](c2c(-c3ccc(F)cc3)[nH]c3c(F)cc(F)cc32)C1` [Compound 291]: 250 to 1000 nM; for `O=C(NCc1cn(CC(F)(F)F)cn1)O[C@H]1C[C@H](c2c(-c3ccc(F)cc3)[nH]c3c(F)cc(F)cc32)C1` [Compound 386]: greater than 1000 nM. For the compound `NC(=O)CNC(=O)C1CC(c2c(-c3ccc(F)cc3)[nH]c3c(F)cc(C(F)(F)F)cc23)C1` (centres unmarked) [Compound 280], the IC50 under setting [1] is less than 250 nM.

In the case of `CC(C)[C@@H](CO)NC(=O)O[C@H]1C[C@H](c2c(-c3ccc(F)cc3)[nH]c3c(F)cc(F)cc32)C1` [Compound 377], for the setting “Table 24, Compounds 287 to 465”, the IC50 is greater than 1000 nM. As for `O=C1CCC(NC(=O)[C@H]2C[C@@H](c3c(-c4ccc(F)cc4)[nH]c4c(F)cc(F)cc43)C2)C(=O)N1` (some centres unmarked) [Compound 252], the IC50 under setting [1] was greater than 1000 nM.

For the compound `CC1(NC(=O)C2CC(Cc3c(-c4ccc(F)cc4)[nH]c4c(F)cc(F)cc34)C2)CCNC1=O` (centres unmarked) [Compound 308], under “Table 24, Compounds 287 to 465”, the IC50 is greater than 1000 nM.

Turning to `CC(C)(CO)NC(=O)O[C@H]1C[C@H](c2c(-c3ccc(F)cc3)[nH]c3c(F)cc(F)cc32)C1` [Compound 352], the IC50 (Table 24, Compounds 287 to 465) fell in the range of 250 to 1000 nM.

As to `O=C(NC[C@@H](O)C(F)(F)F)NC[C@H]1C[C@H](c2c(-c3ccc(F)cc3)[nH]c3c(F)cc(F)cc32)C1` [Compound 424], the IC50 (Table 24, Compounds 287 to 465) is greater than 1000 nM. Still for that read-out and setting: under `CNC(=O)C(C)NCC1CC(c2c(-c3ccc(F)cc3)[nH]c3c(F)cc(F)cc23)C1` (mixture of isomers) [Compound 436] stands 250 to 1000 nM; under `O=C(NC[C@H](O)C(F)(F)F)NC[C@H]1C[C@H](c2c(-c3ccc(F)cc3)[nH]c3c(F)cc(F)cc32)C1` [Compound 406], greater than 1000 nM. Same read-out and setting: the same measure for `CCNC(=O)NC[C@H]1C[C@H](c2c(-c3ccc(F)cc3)[nH]c3c(F)cc(F)cc32)C1` [Compound 410]: greater than 1000 nM. In the case of `Cn1cnc(CNC(=O)[C@H]2C[C@@H](c3c(-c4ccc(F)cc4)[nH]c4c(F)cc(F)cc43)C2)c1` [Compound 261], the IC50 under setting [1] is greater than 1000 nM.

The values are drawn from patent US12116343B2, “Inhibitors of APOL1 and methods of using same” (Vertex Pharmaceuticals Incorporated, priority 2020, dated 2024).
